Measurements published in patent publication US20240174727A1, “LONG-ACTING NATRIURETIC PEPTIDES AND USES THEREOF” (Eli Lilly and Company, priority 2022, published 2024).
Numbered stars: 1 amine (or outer) side, 2 acyl side, 3 side chain; on linkers, the order of the positions; unused ones are H or OH. Bridge positions count the residues as written; N and C are the ends. Square brackets hold non-standard residues; d marks the D form. * marks the point of attachment. PEG24 = NCCOCCOCCOCCOCCOCCOCCOCCOCCOCCOCCOCCOCCOCCOCCOCCOCCOCCOCCOCCOCCOCCOCCOCCOCCC(=O)O; C20 diacid = O=C(O)CCCCCCCCCCCCCCCCCCC(=O)*; γGlu = O=C(O)[C@H](CCC(=O)[*:2])N[*:1]; CH2 = C([*:1])[*:2]; βAla = NCCC(=O)O

Test system: plasma cGMP
Test: In vivo monkey studies, plasma cGMP ELISA
Design: species or system male cynomolgus monkeys
Details: for Net cGMP (nM) Change from Baseline 0.083 h: 0.083 h postdose; for Net cGMP (nM) Change from Baseline 0.083 h / Net cGMP (nM) Change from Baseline 0.25 h / Net cGMP (nM) Change from Baseline 0.5 h / Net cGMP (nM) Change from Baseline 1 h / Net cGMP (nM) Change from Baseline 2 h / Net cGMP (nM) Change from Baseline 4 h / Net cGMP (nM) Change from Baseline 8 h / Net cGMP (nM) Change from Baseline 12 h / Net cGMP (nM) Change from Baseline 24 h / Net cGMP (nM) Change from Baseline 36 h / Net cGMP (nM) Change from Baseline 48 h / Net cGMP (nM) Change from Baseline 72 h / Net cGMP (nM) Change from Baseline 96 h / Net cGMP (nM) Change from Baseline 120 h / Net cGMP (nM) Change from Baseline 144 h / Net cGMP (nM) Change from Baseline 168 h: monkey plasma; for Net cGMP (nM) Change from Baseline 0.25 h: 0.25 h postdose; for Net cGMP (nM) Change from Baseline 0.5 h: 0.5 h postdose; for Net cGMP (nM) Change from Baseline 1 h: 1 h postdose; for Net cGMP (nM) Change from Baseline 2 h: 2 h postdose; for Net cGMP (nM) Change from Baseline 4 h: 4 h postdose; for Net cGMP (nM) Change from Baseline 8 h: 8 h postdose; for Net cGMP (nM) Change from Baseline 12 h: 12 h postdose; for Net cGMP (nM) Change from Baseline 24 h: 24 h postdose; for Net cGMP (nM) Change from Baseline 36 h: 36 h postdose; for Net cGMP (nM) Change from Baseline 48 h: 48 h postdose; for Net cGMP (nM) Change from Baseline 72 h: 72 h postdose; for Net cGMP (nM) Change from Baseline 96 h: 96 h postdose; for Net cGMP (nM) Change from Baseline 120 h: 120 h postdose; for Net cGMP (nM) Change from Baseline 144 h: 144 h postdose; for Net cGMP (nM) Change from Baseline 168 h: 168 h postdose; for net cGMP levels (result in words): monkeys, single SC dose, plasma
Procedure: In vivo monkey studies were conducted as described in detail below. Young adult-to-adult male cynomolgus monkeys were given a single dose subcutaneously (SC). Blood was collected predose and at various pre-determined timepoints throughout the study period. Aliquot of cynomolgus monkey plasma was received for cyclic cGMP (cGMP) measurement and stored at −80° C. prior to use.
Control plasma was made for determining the recovery rate of spike-in cGMP using Enzo cGMP complete ELISA kit (Enzo Life Sciences, Inc, Farmingdale, NY, cat no. ADI-901-164). Briefly, blood from male Sprague Dawley rats (Inotiv, Indianapolis, IN), about 7 months old, was collected in a BD Vacutainer EDTA tube (Becton Dickinson, Franklin Lakes, NJ, cat no. BD-367856) with volume of approximate 4 mL through retro orbital bleeding. Plasma was prepared by spinning the tube in an Eppendorf Refrigerated Centrifuge 5810R (Brinkman Instruments, Inc, Westbury, NY) at 3500 rpm (3000×g) for 10 min at 4° C. Plasma was collected as Positive Control plasma. Cyclic GMP (cGMP standard from Enzo cGMP complete ELISA kit) was added to the positive control plasma at a final concentration of additional 40 nM. Positive Control and Spiked-in Control plasma were aliquoted and stored at −80° C.
The cGMP content was measured using the Enzo cGMP complete ELISA kit following the manufacturer's directions with modifications as described below. The cGMP standards provided in the kit were diluted 1:3 ranging from 50 nM to 0.023 nM in 1× assay buffer that was diluted in water from 2× assay buffer provided in the kit. The cGMP standards ([…]) were transferred to a 96-well polypropylene plate (Thermo Scientific, cat no. 442587).
Plasma samples were thawed from −80° C. and diluted 1:20 in 1× assay buffer in the above plate with a final volume of 150 μL. Assay buffer was added (150 μL) for both a non-specific binding control (in the absence of cGMP antibody) and a maximum binding control (in the absence of competing cGMP) in duplicate wells. Positive Control and Spiked-in Control plasma were diluted 1:20 in 1× assay buffer with a final volume of 150 μL in duplicate wells of the above plate. All diluted plasma was mixed by pipetting up and down several times.
Acetylation reagent mix was prepared by adding 1-part of acetic anhydride into 2-parts of triethylamine provided in the kit and mixing well using Vortex (Scientific Industries, Inc, Bohemia, NY). All controls, standards, and plasma samples were acetylated by adding 15 μL of acetylation reagent mix into the plate, one column at a time, and shaking for 1 min on a Titer Plate Shaker (Lab-Line Instrument, Inc., Melrose Park, IL) at room temperature. The plate was shaken for an additional 1 min following the acetylation of the last column to ensure the reaction was completed.
Acetylated controls, standard and plasma samples were transferred (100 μL) to an ELISA plate (n=1). Then 50 μL of cGMP conjugate were added to each well followed by the addition of 50 μL cGMP antibody to each well except for two non-specific binding wells, in which 50 μL of 1× assay buffer were added. The plate was then sealed and shaken for 2 h at room temperature on the plate shaker. Following this incubation, the plate was washed five times using 200 μL of 1× wash buffer diluted in water from 5× wash buffer provided in the kit. Then, 200 μL of para-Nitrophenylphosphate (pNpp) were added to each well. The plate was sealed with a new plate sealer and shaken in dark for 1 h at room temperature on the plate shaker. Finally, 50 μL of stop solution were added to each well to stop the enzyme reaction. The plate was then read at 405 nm using SpectraMax Plus (Molecular Devices, San Jose, CA).
The mean absorbance at 405 nm (O.D. 405 nm) for the non-specific binding controls was subtracted from the O.D. 405 nm of all samples. The subtracted O.D. 405 nm of all samples were then normalized with the mean subtracted O.D. 405 nm of the maximum binding controls as B/B0%. […]

| Compound | Net cGMP (nM) Change from Baseline 0.083 h (dose 25 nmol/kg) | Net cGMP (nM) Change from Baseline 0.25 h (dose 25 nmol/kg) | Net cGMP (nM) Change from Baseline 0.5 h (dose 25 nmol/kg) | Net cGMP (nM) Change from Baseline 1 h (dose 25 nmol/kg) | Net cGMP (nM) Change from Baseline 2 h (dose 25 nmol/kg) | Net cGMP (nM) Change from Baseline 4 h (dose 25 nmol/kg) | Net cGMP (nM) Change from Baseline 8 h (dose 25 nmol/kg) | Net cGMP (nM) Change from Baseline 12 h (dose 25 nmol/kg) | Net cGMP (nM) Change from Baseline 24 h (dose 25 nmol/kg) | Net cGMP (nM) Change from Baseline 36 h (dose 25 nmol/kg) | Net cGMP (nM) Change from Baseline 48 h (dose 25 nmol/kg) | Net cGMP (nM) Change from Baseline 72 h (dose 25 nmol/kg) | Net cGMP (nM) Change from Baseline 96 h (dose 25 nmol/kg) | Net cGMP (nM) Change from Baseline 120 h (dose 25 nmol/kg) | Net cGMP (nM) Change from Baseline 144 h (dose 25 nmol/kg) | Net cGMP (nM) Change from Baseline 168 h (dose 25 nmol/kg) | net cGMP levels (result in words) | Net cGMP (nM) Change from Baseline 0.083 h (dose 100 nmol/kg) | Net cGMP (nM) Change from Baseline 0.25 h (dose 100 nmol/kg) | Net cGMP (nM) Change from Baseline 0.5 h (dose 100 nmol/kg) | further results |
| --- | --- | --- | --- | --- | --- | --- | --- | --- | --- | --- | --- | --- | --- | --- | --- | --- | --- | --- | --- | --- | --- |
| (BFAEN2-γGlu)-KEKEKG-PEG24-EK-βAla-RSS[CFGGKIDRIGHYSGLGC]PSFRHGSPSSGAPPPS-NH2 (EKXRSSCFGGKIDRIGHYSGLGCPSFRHGSPSSGAPPPS; BFAEN2-γGlu, PEG24, C-terminal amide; MOD_RES 1 N-terminal modified with (BFAEN2-beta-Ala)-KEKEKG-PEG24-; wherein BFAEN2 is Bifurcated Fatty Acid Enantiomer 2; SITE 3 X at position 3 is beta-Alanine; MOD_RES 39 Amidation; DISULFID 7..23 Intrachain thioacetal bond) [Example 145] | -0.82 nM | 2.94 nM | 4.37 nM | 3.19 nM | 8.88 nM | 11.23 nM | 17.87 nM | 22.09 nM | 24.61 nM | 31.53 nM | 21.81 nM | 21 nM | 14.82 nM | 14.4 nM | 11.99 nM | 5.89 nM | increased net cGMP levels |  |  |  |  |
| {C20 diacid-γGlu}-EKEKEKG[PEG24]EK[βAla]RSSCFGKRIDRIGHYSGLGCPSFRHGSPSSGAPPPS-NH2 (linker 15-31 via CH2) [Example 106] |  |  |  |  |  |  |  |  |  |  |  |  |  |  |  |  | increased net cGMP levels | 3.54 nM | 19.8 nM | 25.25 nM | Net cGMP (nM) Change from Baseline 1 h (dose 100 nmol/kg): 24.83 nM; Net cGMP (nM) Change from Baseline 2 h (dose 100 nmol/kg): 26.38 nM; Net cGMP (nM) Change from Baseline 4 h (dose 100 nmol/kg): 26.16 nM; Net cGMP (nM) Change from Baseline 8 h (dose 100 nmol/kg): 14.03 nM; Net cGMP (nM) Change from Baseline 12 h (dose 100 nmol/kg): 17.64 nM; Net cGMP (nM) Change from Baseline 24 h (dose 100 nmol/kg): 9.38 nM; Net cGMP (nM) Change from Baseline 36 h (dose 100 nmol/kg): 12.13 nM; Net cGMP (nM) Change from Baseline 48 h (dose 100 nmol/kg): 8.71 nM; Net cGMP (nM) Change from Baseline 72 h (dose 100 nmol/kg): 5.67 nM; Net cGMP (nM) Change from Baseline 96 h (dose 100 nmol/kg): 6.4 nM; Net cGMP (nM) Change from Baseline 120 h (dose 100 nmol/kg): 7.88 nM; Net cGMP (nM) Change from Baseline 144 h (dose 100 nmol/kg): 7.54 nM; Net cGMP (nM) Change from Baseline 168 h (dose 100 nmol/kg): 7.66 nM |
| {C20 diacid-γGlu}-EKEKEKG[PEG24]EKPRSSCFGKRIDRIGHQSGLGCPSFRHSGSPSSGAPPPSG-NH2 (linker 15-31 via CH2) [Example 132, HOOC-(CH2)18-CO-(γGlu)-EKEKEKG-PEG24-EKPRSS[CFGKRIDRIGHQSGLGCJPSFRHSGSPSSGAPPPSG-NH2] | 2.96 nM | 11.54 nM | 25 nM | 29.41 nM | 28.64 nM | 28.7 nM | 24.12 nM | 20.96 nM | 19.79 nM | 17.54 nM | 12.7 nM | 13.11 nM | 11.68 nM | 13.22 nM | 11.64 nM | 7.08 nM | increased net cGMP levels |  |  |  |  |
| CC[C@H](C)[C@@H]1NC(=O)[C@H](CCCNC(=N)N)NC(=O)[C@H](CC(=O)O)NC(=O)[C@H]([C@@H](C)CC)NC(=O)[C@H](CCCNC(=N)N)NC(=O)[C@H](CCCCN)NC(=O)CNC(=O)[C@H](Cc2ccccc2)NC(=O)[C@@H](NC(=O)[C@H](CO)NC(=O)[C@H](CO)NC(=O)[C@H](CCCNC(=N)N)NC(=O)[C@H](CCCNC(=N)N)NC(=O)[C@H](Cc2ccncc2)NC(=O)[C@H](CO)NC(=O)CNC(=O)[C@H](CCCCN)NC(=O)[C@H](CCC(=O)O)NC(=O)[C@H](CCCCN)NC(=O)[C@H](CCC(=O)O)NC(=O)[C@H](CCCCN)NC(=O)[C@H](CCC(=O)O)NC(=O)CC[C@H](NC(=O)CCCCCCCCCCCCCCCCC(=O)O)C(=O)O)CSCSC[C@@H](C(=O)N2CCC[C@H]2C(=O)N[C@@H](CO)C(=O)N[C@@H](Cc2ccccc2)C(=O)N[C@@H](CCCNC(=N)N)C(=O)N[C@@H](Cc2c[nH]cn2)C(=O)NCC(=O)NCC(=O)N[C@@H](CCCCN)C(=O)N[C@@H](CO)C(=O)N[C@@H](CO)C(=O)NCC(=O)N[C@@H](C)C(=O)N2CCC[C@H]2C(=O)N2CCC[C@H]2C(=O)N2CCC[C@H]2C(=O)N[C@@H](CO)C(N)=O)NC(=O)CNC(=O)[C@H](CC(C)C)NC(=O)CNC(=O)[C@H](CO)NC(=O)[C@H](Cc2ccc(O)cc2)NC(=O)[C@H](Cc2c[nH]cn2)NC(=O)CNC1=O [Example 81] |  |  |  |  |  |  |  |  |  |  |  |  |  |  |  |  | increased net cGMP levels | 5.6 nM | 32.08 nM | 37.47 nM | Net cGMP (nM) Change from Baseline 1 h (dose 100 nmol/kg): 43.98 nM; Net cGMP (nM) Change from Baseline 2 h (dose 100 nmol/kg): 38.64 nM; Net cGMP (nM) Change from Baseline 4 h (dose 100 nmol/kg): 31.25 nM; Net cGMP (nM) Change from Baseline 8 h (dose 100 nmol/kg): 23.05 nM; Net cGMP (nM) Change from Baseline 12 h (dose 100 nmol/kg): 27.6 nM; Net cGMP (nM) Change from Baseline 24 h (dose 100 nmol/kg): 22.83 nM; Net cGMP (nM) Change from Baseline 36 h (dose 100 nmol/kg): 24.25 nM; Net cGMP (nM) Change from Baseline 48 h (dose 100 nmol/kg): 15.44 nM; Net cGMP (nM) Change from Baseline 72 h (dose 100 nmol/kg): 12.4 nM; Net cGMP (nM) Change from Baseline 96 h (dose 100 nmol/kg): 10.48 nM; Net cGMP (nM) Change from Baseline 120 h (dose 100 nmol/kg): 12.63 nM; Net cGMP (nM) Change from Baseline 144 h (dose 100 nmol/kg): 9.54 nM; Net cGMP (nM) Change from Baseline 168 h (dose 100 nmol/kg): 7 nM |
